Some results are limits rather than exact numbers.

The IC50 is the concentration needed to halve the response being measured.

This assay relates to HIV-1 pseudotyped virus. Briefly: HIV-1 pseudotyped virus assay (luciferase reporter gene, single cycle of infection). The class given is cell-based. The conditions noted are these: Human immunodeficiency virus 1, CCR5, 72 h, read-out: Activity (antiviral activity, IC50). An excerpt: In this example are illustrated experimental procedures for determining biological activity, such as antiviral activity. For determining biological activity, an HIV-1 infection assay was used to determine the antiviral potency for compounds of the present invention.
For determining biological activity, an HIV-1 pseudotyped virus assay was used to determine the respective antiviral potencies of each compound tested in the assay for comparison. The pseudotyped assay scores for a reduction in infection as indicated by decreased signal from the reporter gene encoding a luciferase enzyme (“reporter gene”). The assay employs cell lines expressing CD4 and either of the primary chemokine receptors (CCR5 or CXCR4) that HIV uses as a co-receptor (“target cells”). Pseudotyped virus was prepared by co-transfection of 293T cells with: 1) a plasmid construct carrying the HIV-1 envelope of choice, in combination with 2) a pseudotyped virus backbone construct in which (a) envelope expression has been abrogated due to a frameshift in the envelope sequence, and (b) the reporter gene replaces nef. Expression of HIV-1 envelope on 293T packaging cells results in the production of a pseudotyped virus carrying the reporter gene that is capable of a single cycle of infection.
The compounds of the present invention being tested for antiviral activity were serially diluted and dose responses determined in duplicate in two separate experiments. The compounds to be tested were added directly to the plated, target cells, followed by the addition of pseudotyped virus described above. The cells were cultured for three days prior harvest. Media and compound were removed, the cell monolayer was washed, lysed by detergent, and then frozen at −80 degrees C. for a minimum of 30 minutes. Following thawing and acclimation to room temperature, luciferase production was quatified by injecting 100 […]I of a substrate (of the enzyme encoded by the reporter gene) into each well followed by detecting the signal (light emitted from the interaction between the enzyme and substrate) after 5 seconds. In the pseudotyped assay, a 50% reduction in signal is significant, and provides the primary cutoff value for assessing antiviral activity (“IC50” is defined as the dilution resulting in a 50% reduction in enzymatic activity as interpolated from a titration curve). Representative compounds according to the present invention, and their antiviral activity, are illustrated in Table 3.
In general terms: A reporter such as luciferase makes a cellular process visible.
Turning to `C[C@@H]1CN(C(=O)c2ccccc2)CCN1C(=O)C(=O)c1ccc(-c2ccsc2)cc1` [Example 204], the IC50 was less than 5 µM. For `CO/N=C(\c1ccccc1)N1CCN(C(=O)C(=O)c2ccc(-c3cnco3)cc2)[C@H](C)C1` [Example 106, 1-((R)-4-{[Methoxyimino]-phenyl-methyl}-2-methyl-piperazin-1-yl)-2-(4-oxazol-5-yl-phenyl)-ethane-1,2-dione] the value was less than 5 µM. The value for `C[C@@H]1CN(C(=O)c2ccccc2)CCN1C(=O)C(=O)c1ccc(N2CCCC2)cc1` [Example 211, 1-((R)-4-Benzoyl-2-methyl-piperazin-1-yl)-2-(4-pyrrolidin-1-yl-phenyl)-ethane-1,2-dione] was greater than 5 µM; that for `C[C@@H]1CN(C(=O)c2ccccc2)CCN1C(=O)C(=O)c1ccc(-n2cncn2)c(Cl)c1` [Example 231] was greater than 5 µM; that for `C[C@@H]1CN(C(=O)c2ccccc2)CCN1S(=O)(=O)c1ccc(C(=O)c2cccs2)cc1` [Example 245] was greater than 5 µM. For `CC1CN(C(=O)c2ccccc2)CCN1S(=O)(=O)c1ccc(C(=O)c2cnc[nH]2)s1` (centres unmarked) [Example 111, {4-[5-(3H-Imidazole-4-carbonyl)-thiophene-2-sulfonyl]-3-methyl-piperazin-1-yl}-phenyl-methanone] the value was greater than 5 µM; for `C[C@@H]1CN(C(=O)c2ccccc2)CCN1C(=O)C(=O)c1cnc(-c2ccccc2)cc1O` [Example 244], greater than 5 µM. On to `C[C@@H]1CN(C(=O)c2ccccc2)CCN1C(=O)C(=O)c1ccc(-c2nnn(C)n2)cc1` [Example 105, 1-((R)-4-Benzoyl-2-methyl-piperazin-1-yl)-2-[4-(2-methyl-2H-tetrazol-5-yl)-phenyl]-ethane-1,2-dione], for which the concentration for half-maximal inhibition (IC50) was less than 5 µM. For `CC1CN(C(=O)c2ccccc2)CCN1S(=O)(=O)c1cccc(-n2cccn2)c1` (centres unmarked) [Example 115, [3-Methyl-4-(3-pyrazol-1-yl-benzenesulfonyl)-piperazin-1-yl]-phenyl-methanone] the value was greater than 5 µM; for `C[C@@H]1CN(C(=O)c2ccccc2)CCN1C(=O)C(=O)c1cnc(-c2cccs2)cc1O` [Example 243], greater than 5 µM. On to `CC1CN(C(=O)c2ccccc2)CCN1C(=O)C(=O)c1ccc(-c2ccn[nH]2)cc1` (centres unmarked) [Example 169, 1-(4-Benzoyl-2-methyl-piperazin-1-yl)-2-[4-(2H-pyrazol-3-yl)-phenyl]-ethane-1,2-dione], for which the 50% inhibitory concentration (IC50) was less than 5 µM. Regarding `C[C@@H]1CN(C(=O)c2ccccc2)CCN1S(=O)(=O)c1ccc(C(=O)c2ccon2)s1` [Example 248], the IC50 is greater than 5 µM. Turning to `Cc1ccnc(-c2ccc(S(=O)(=O)N3CCN(C(=O)c4ccccc4)CC3C)s2)c1` (centres unmarked) [Example 138, (3-methyl-4-(5-(4-methylpyridin-2-yl)thiophen-2-ylsulfonyl)piperazin-1-yl)(phenyl)methanone], the half-inhibitory concentration (IC50) is greater than 5 µM. As to `C[C@@H]1CN(C(=O)c2ccccc2)CCN1C(=O)C(=O)c1ccc(-c2cc[nH]n2)cc1Cl` [Example 192], the IC50 is less than 5 µM.

Consider `CC1CN(C(=O)c2ccccc2)CCN1S(=O)(=O)c1cccc(-n2ccnn2)c1` (centres unmarked) [Example 113, [3-Methyl-4-(3-[1,2,3]triazol-1-yl-benzenesulfonyl)-piperazin-1-yl]-phenyl-methanone], for which the IC50 is greater than 5 µM.

Regarding `C[C@@H]1CN(C(=O)c2ccccc2)CCN1C(=O)C(=O)c1ccc(N2CCOC2=O)cc1` [Example 212, 1-((R)-4-Benzoyl-2-methyl-piperazin-1-yl)-2-[4-(2-oxo-oxazolidin-3-yl)-phenyl]-ethane-1,2-dione], the 50% inhibitory concentration (IC50) is greater than 5 µM. For `C[C@@H]1CN(C(=O)c2ccccc2)CCN1C(=O)C(=O)c1ccc(-c2nccn2C)s1` [Example 188] the value was greater than 5 µM; for `CC1CN(C(=O)c2ccccc2)CCN1S(=O)(=O)c1ccc(-n2cccn2)cc1` (centres unmarked) [Example 119, [3-Methyl-4-(4-pyrazol-1-yl-benzenesulfonyl)-piperazin-1-yl]-phenyl-methanone], greater than 5 µM; for `CC1CN(C(=O)c2ccccc2)CCN1S(=O)(=O)c1ccc(-c2cc(-n3ccnc3)ncn2)s1` (centres unmarked) [Example 152, (4-(5-(6-(1H-imidazol-1-yl)pyrimidin-4-yl)thiophen-2-ylsulfonyl)-3-methylpiperazin-1-yl)(phenyl)methanone], greater than 5 µM. The value for `COc1cc(-c2cc[nH]n2)c(Cl)cc1C(=O)C(=O)N1C2CCC1CN(C(=O)c1ccccc1)C2` [Example 237] was greater than 5 µM; that for `Cc1cc(-c2ccc(C(O)C(=O)N3CCN(C(=O)c4ccccc4)C[C@H]3C)cc2)on1` (some centres unmarked) [Example 235] was greater than 5 µM; that for `C[C@@H]1CN(C(=O)c2ccccc2)CCN1S(=O)(=O)c1ccc(-c2ccccn2)s1` [Example 168, [(R)-3-Methyl-4-(5-pyridinyl-2-yl-thiophene-2-sulfonyl)-piperazin-1-yl]-phenyl-methanone] was greater than 5 µM. With `COc1cc(-c2ccc(C(=O)C(=O)N3CCN(C(=O)c4ccccc4)C[C@H]3C)cc2)nc(OC)n1` [Example 202], the IC50 is less than 5 µM. For `C[C@@H]1CN(C(=O)c2ccccc2)CCN1C(=O)C(=O)c1ccc(-n2cccn2)nc1` [Example 214, 1-((R)-4-Benzoyl-2-methyl-piperazin-1-yl)-2-(6-pyrazol-1-yl-pyridin-3-yl)-ethane-1,2-dione] the value was less than 5 µM; for `CC1CN(C(=O)c2ccccc2)CCN1S(=O)(=O)c1ccc(-c2ncccc2C(F)(F)F)s1` (centres unmarked) [Example 157, (3-methyl-4-(5-(3-(trifluoro-methyl)pyridin-2-yl)thiophen-2-ylsulfonyl)piperazin-1-yl)(phenyl)methanone], greater than 5 µM; for `C[C@@H]1CN(C(=O)c2ccccc2)CCN1S(=O)(=O)c1ccc(-c2cc(C(=O)c3ccc(Cl)cc3)no2)s1` [Example 132, ((R)-4-{5-[3-(4-Chloro-benzoyl)-isoxazol-5-yl]-thiophene-2-sulfonyl}-3-methyl-piperazin-1-yl)-phenyl-methanone], greater than 5 µM. The value for `C[C@@H]1CN(C(=O)c2ccccc2)CCN1S(=O)(=O)c1ccc(C(=O)c2ccsc2)s1` [Example 246] was greater than 5 µM; that for `C[C@@H]1CN(C(=O)c2ccccc2)CCN1C(=O)C(=O)c1ccc(-c2ccc(C(F)(F)F)cn2)cc1` [Example 201] was less than 5 µM; that for `CC1CN(C(=O)c2ccccc2)CCN1S(=O)(=O)c1ccc(-c2ccncc2)s1` (centres unmarked) [Example 153, (3-methyl-4-(5-(pyridin-4-yl)thiophen-2-ylsulfonyl)piperazin-1-yl)(phenyl)methanone] was greater than 5 µM. Consider `CC(=O)c1cccc(-c2ccc(S(=O)(=O)N3CCN(C(=O)c4ccccc4)CC3C)s2)n1` (centres unmarked) [Example 155, 1-(6-(5-(4-benzoyl-2-methylpiperazin-1-ylsulfonyl)thiophen-2-yl)pyridin-2-yl)ethanone], for which the 50% inhibitory concentration (IC50) was greater than 5 µM. For `CC1CN(C(=O)c2ccccc2)CCN1S(=O)(=O)c1ccc(-c2nncc3ccccc23)s1` (centres unmarked) [Example 154, (3-methyl-4-(5-(phthalazin-1-yl)thiophen-2-ylsulfonyl)piperazin-1-yl)(phenyl)methanone] the value was greater than 5 µM. For `COc1cc(C(=O)C(=O)N2CCN(C(=O)c3ccccc3)C[C@H]2C)ccc1-c1cc[nH]n1` [Example 191] the value was less than 5 µM.

Source of the values: patent publication US20070259879A1, “Piperazine and piperidine biaryl derivatives” (priority 2006, published 2007).
